How the values were obtained:
Assay type in all cases: functional
[1] = tested on: Oryctolagus cuniculus; assay: Tested for the fall of intraocular pressure of glaucomatous rabbits, after treatment with one drop (50 uL) 2% solution at a pH 7.0, directly into the eye after 30 minutes of administration
[2] = tested on: Oryctolagus cuniculus; assay: Tested for the fall of intraocular pressure of glaucomatous rabbits, after treatment with one drop (50 uL) 2% solution at a pH 7.0, directly into the eye after 0 minutes of administration
[3] = tested on: Oryctolagus cuniculus; assay: Tested for the fall of intraocular pressure of glaucomatous rabbits, after treatment with one drop (50 uL) 2% solution at a pH 7.0, directly into the eye after 90 minutes of administration
[4] = tested on: Oryctolagus cuniculus; assay: Tested for the fall of intraocular pressure of glaucomatous rabbits, after treatment with one drop (50 uL) 2% solution at a pH 7.0, directly into the eye after 60 minutes of administration
[5] = tested on: Oryctolagus cuniculus; assay: Tested for the fall of intraocular pressure of glaucomatous rabbits, after treatment with one drop (50 uL) 2% solution at a pH 6.5, directly into the eye after 0 minutes of administration
[6] = tested on: Oryctolagus cuniculus; assay: Tested for the fall of intraocular pressure of glaucomatous rabbits, after treatment with one drop (50 uL) 2% solution at a pH 6.5, directly into the eye after 60 minutes of administration
[7] = tested on: Oryctolagus cuniculus; assay: Tested for the fall of intraocular pressure of glaucomatous rabbits, after treatment with one drop (50 uL) 2% solution at a pH 6.5, directly into the eye after 30 minutes of administration
[8] = tested on: Oryctolagus cuniculus; assay: Tested for the fall of intraocular pressure of glaucomatous rabbits, after treatment with one drop (50 uL) 2% solution at a pH 6.5, directly into the eye after 90 minutes of administration

**Q.** What does the source list for `NCC(=O)NC(=S)NCCc1ccc(S(N)(=O)=O)cc1.[Cl-].[Na+]`?
**A.** Activity [1]: 3 mmHg; Activity [2]: 0 mmHg; Activity [3]: 5.5 mmHg; Activity [4]: 5.9 mmHg

**Q.** Which Activity [1] does the source give for `NC(=O)CC(N)C(=O)NC(=S)NCCc1ccc(S(N)(=O)=O)cc1.[Cl-].[Na+]` (stereo unspecified) here?
**A.** The Activity was 10 mmHg.

**Q.** What about the Activity [2] of the same molecule?
**A.** Its Activity is 0 mmHg.

**Q.** And the Activity [3]?
**A.** Its Activity is 15.5 mmHg.

**Q.** And the Activity [4]?
**A.** The Activity was 13 mmHg.

**Q.** Which Activity [1] does the source give for `NC(Cc1ccccc1)C(=O)NC(=S)NCCc1ccc(S(N)(=O)=O)cc1.[Cl-].[Na+]` (stereo unspecified) here?
**A.** The Activity was 4 mmHg.

**Q.** And the Activity [2]?
**A.** The Activity was 0 mmHg.

**Q.** What about the Activity [3] of the same molecule?
**A.** Its Activity is 6.4 mmHg.

**Q.** What about the Activity [4] of the same molecule?
**A.** Its Activity is 6.1 mmHg.

**Q.** How did the Activity [5] turn out when `Cl.NS(=O)(=O)c1ccc(CC/N=C(\S)NNCCN2CCOCC2)cc1` was run?
**A.** The Activity was 0 mmHg.

**Q.** What about the Activity [6] of the same molecule?
**A.** Its Activity is 6.9 mmHg.

**Q.** What about the Activity [7] of the same molecule?
**A.** The Activity was 6.5 mmHg.

**Q.** What about the Activity [8] of the same molecule?
**A.** The Activity was 5.9 mmHg.
